Test results as given in patent publication US20250367299A1, “GAMMA-HYDRO[…] AND PROCESSES FOR MAKING AND USING THEM” (Zevra Therapeutics, Inc., priority 2022, published 2025).

Assay: Pharmacokinetics of GHB in plasma after oral gavage of GHB delivering compounds, with relative oral bioavailability vs sodium oxybate
Settings: vehicle water; for % AUC0-4 hr, relative oral bioavailability vs study comparator (sodium oxybate) / % Cmax, relative oral bioavailability vs study comparator (sodium oxybate): mean conjugate/mean comparator
[1] = dose equivalent to 80 mg/kg NaGHB
[2] = dose molar equivalent of 100 mg/kg NaGHB

Structure (SMILES) | % AUC0-4 hr, relative oral bioavailability vs study comparator (sodium oxybate) [1] [%] | % Cmax, relative oral bioavailability vs study comparator (sodium oxybate) [1] [%] | % AUC0-4 hr, relative oral bioavailability vs study comparator (sodium oxybate) [2] [%] | % Cmax, relative oral bioavailability vs study comparator (sodium oxybate) [2] [%] | Tmax of GHB in plasma (oral gavage, dose molar equivalent of 100 mg/kg NaGHB) [min]
CCOC(=O)OCCCC(=O)O [O-(ethoxycarbonyl)-GHB, O-(Ethoxycarbonyl)-GHB] | 54 | 51 | – | – | –
O=C1CCCO1 [GBL] | – | – | 27 | 70 | 15
